Data published in paper PMC8005090, “Bioanalytical Method Development and Validation Study of Neuroprotective Extract of Kashmiri Saffron Using Ultra-Fast Liquid Chromatography-Tandem Mass Spectrometry (UFLC-MS/MS): In Vivo Pharmacokinetics of Apocarotenoids and Carotenoids” (Molecules, 2021).
Read-outs that look alike come from different tables or passages of the source.

What was measured:
[1] = Oral pharmacokinetics of CSE constituents in rat plasma (UFLC-MS/MS); format: in vivo, Sprague–Dawley rats; details: single oral CSE 40 mg/kg, n = 6, mean ± SEM
Protocol: The PK parameters were calculated by non-compartmental analysis. The PK parameters, such as maximum plasma concentration (Cmax) and the time to reach the maximum plasma concentration (Tmax), were derived directly from the experimental data. The trapezoidal equation calculated the areas under the plasma concentration-time curves from 0 to the time of the last quantifiable concentration (AUC0−t). The AUC was extrapolated to infinity AUC0-∞ using Ct/Kel, where Ct is the last measured MET concentration. Kel is the elimination rate constant determined from the terminal slope of the log concentration-time plot. The Kel was obtained from the linear regression curve slope by fitting the terminal concentrations’ natural logarithms versus time. The terminal elimination half-life (t1/2) was calculated by 0.693/Kel. The clearance (CL) was calculated as the quotient of the dose (D) and AUC0−∞. All values were expressed as mean ± SEM.
Male Sprague–Dawley rats (250–300 g) were purchased from Crystal Biological Solution, Pune, Maharashtra, India. The animal studies were sanctioned by the Animal Ethics Committee of Crystal Biological Solution, Pune. It was carried out following the Animal Ethics Procedures and Guidelines of Control and Supervision of Experiments on Animals (CPCSEA) committee requirements. Animals were housed 3–4 per cage in rooms with constant temperature (25 ± 2 °C), humidity (50 ± 20%), and 12 h dark-light cycle. All animals in the oral group fasted overnight before the dosing, and food was provided 8 h post-dose, and water was ad libitum. The investigational CSE was fed orally to an individual rat as per its body weight.
The UFLC-MS/MS analysis was performed on a Shimadzu UFLC system (Kyoto, Japan) consisting of a DGU-20A5R degasser, LC-30AD pump, SIL-30AC autosampler, CTO-20AC column oven. The chromatographic separation was carried out in a single analytical run divided into loading and eluting phases by alternating the electronic valve. At the loading phase (−1–0 min), the auto-sampler was responsible for injecting 50 µL of the sample. The LC-30AD pump was responsible for delivering water containing 0.1% formic acid to the pre-column (Phenomenex Security Guard ULTRA with C8 Cartridge) at 0.8 mL/min to remove protein and retain analytes. At the eluting phase (0–12 min), the retained components were flushed from the pre-column into the analytical column (Dr. Maisch GmbH Reprosil Gold XBD C8, 50 mm × 4.6 mm, i.d., 1.8 µm) eluting as per time programmed gradient. The flow rate of the mobile phase was 0.8 mL/min. The mobile phase consists of a mixture of water containing 0.1% formic acid (%v/v) (A) and 100% acetonitrile (B). The gradient elution program was carried out for chromatographic separation: 0.01–1.91 min, 20% B; 1.91–5.91 min, 2090% B; 5.91–6.91 min, 90–80% B; 6.91–8.24 min, 80–20% B; and 8.24–12 min, 20% B. The column oven temperature was set at 30 °C. The MS/MS analysis was carried out on an LCMS-8045 triple-quadrupole mass spectrometer (Shimadzu, Kyoto, Japan) equipped with positive and negative electrospray ionization (ESI) interfaces using the MRM mode. The compound and source dependent parameters were defined as follows: nitrogen was used as nebulizing and drying gas; argon was used as the collision gas. Quadruple voltage was set at Q1 RF gain: 4998 Q1 RF offset 4990 and Q1 post-rod bias: −5.0 V CID CELL exit lens: −4.0 V, interface: ESI, interface temperature: 350 °C, desolvation line (DL) temperature: 250 °C, nebulizing gas flow: 2.50 L/min, heating gas flow: 10.00 L/min heat block: 300 °C; drying gas flow: 10.00 L/min.
An aliquot of 45 µL of rat plasma was spiked with each 5 µL of IS1 and IS2, and 200 µL of methanol was added, vortexed for 1–2 min, then centrifuged for 10 min at 2000 RPM. Collect the supernatant into HPLC vials and injected it into the UFLC-MS/MS system for analysis. […]

[2] = system: mice; design: method as in PMID 28471166, PMID 31459089, PMID 33404280; details: by inducing autophagy mediated by AMPK pathway activation; cited from earlier work
[3] = Stability of analytes in rat plasma (autosampler, room temperature, freeze-thaw); format: in vitro ADME; details: for analyte stability in plasma: LQC and HQC, processed plasma samples, stable under restricted storage conditions; for Room Temperature Stability (%, mean ± SD) / Autosampler Stability (%, mean ± SD) / Freeze-Thaw Stability (%, mean ± SD): rat plasma, n = 6; for Room Temperature Stability (%, mean ± SD): ambient temperature 4 h; for Autosampler Stability (%, mean ± SD): autosampler 8 °C for 24 h; for Freeze-Thaw Stability (%, mean ± SD): three freeze-thaw cycles at −20 ± 4 °C
Protocol: The stability was performed at different sets of working and storage conditions. […] The stability conditions of the method studied were at ambient temperature for 4 h (room-temperature stability), in the autosampler at 8 °C conditions for 24 h (autosampler stability), and with three freeze-thaw cycles at −20 ± 4 °C condition (freeze-thaw stability). The samples were prudent to be stable if the measured concentration was within ±15% of the nominal concentration.

[4] = male, Sprague-Dawley, rat, plasma, po, 40 mg/kg
[5] = male, Sprague-Dawley, rat, plasma, po, 40 mg/kg, read-out: Tmax

| Compound | half-life [1, 4] [h] | Tmax [1, 5] [h] | AUC(0-inf) ([1]; male, Sprague-Dawley) [ng·h/mL] | AUC(0-t) ([1]; male, Sprague-Dawley) [ng·h/mL] | Cmax ([1]; male, Sprague-Dawley) [ng/mL] | CL [1] | Vd [1] [L/kg] | Tmax [1] [h] | memory function [2] | analyte stability in plasma [3] | Room Temperature Stability (%, mean ± SD) ([3]; nominal 30.00 ng/mL (LQC)) [ng/mL] | Autosampler Stability (%, mean ± SD) ([3]; nominal 30.00 ng/mL (LQC)) [ng/mL] | Freeze-Thaw Stability (%, mean ± SD) ([3]; nominal 30.00 ng/mL (LQC)) [ng/mL] | Room Temperature Stability (%, mean ± SD) ([3]; nominal 2400.00 ng/mL (HQC)) [ng/mL] | Autosampler Stability (%, mean ± SD) ([3]; nominal 2400.00 ng/mL (HQC)) [ng/mL] | Freeze-Thaw Stability (%, mean ± SD) ([3]; nominal 2400.00 ng/mL (HQC)) [ng/mL] |
| --- | --- | --- | --- | --- | --- | --- | --- | --- | --- | --- | --- | --- | --- | --- | --- | --- |
| CC(=C/C=C/C=C(C)/C=C/C=C(\C)C(=O)OC1OC(COC2OC(CO)C(O)C(O)C2O)C(O)C(O)C1O)/C=C/C=C(\C)C(=O)OC1OC(COC2OC(CO)C(O)C(O)C2O)C(O)C(O)C1O (stereo not drawn) [C4C, cis-4-GG-crocin] | 1.57 ± 1.57 | 3.25 ± 1.05 | 407 ± 187 | 396 ± 113 | 86.1 ± 15.7 | 326.37 ± 445.89 mL/h/kg | 4.29 ± 1.94 |  |  |  |  |  |  |  |  |  |
| CC(/C=C/C=C(\C)C(=O)O)=C\C=C\C=C(C)\C=C\C=C(/C)C(=O)O [TCT, trans crocetin] | > 11 | 6.83 ± 1.68 | 30700 | 23600 | 2080 ± 374 |  |  | 6.84 ± 1.69 | improved memory function | stable |  |  |  |  |  |  |
| CC(/C=C/C=C(\C)C(=O)OC1OC(CO)C(O)C(O)C1O)=C\C=C\C=C(C)\C=C\C=C(/C)C(=O)OC1OC(COC2OC(CO)C(O)C(O)C2O)C(O)C(O)C1O (stereo not drawn) [T3C, trans-3-Gg-crocin] | 4.6 ± 2.74 | 3.5 ± 1.09 | 55.5 ± 31.2 | 20.4 ± 9.64 | 7.59 ± 4.71 | 114,958.33 ± 71,000.46 mL/h/kg | 325.573 ± 13.099 |  |  |  |  |  |  |  |  |  |
| CC(/C=C/C=C(\C)C(=O)OC1OC(COC2OC(CO)C(O)C(O)C2O)C(O)C(O)C1O)=C\C=C\C=C(C)\C=C\C=C(/C)C(=O)OC1OC(COC2OC(CO)C(O)C(O)C2O)C(O)C(O)C1O (stereo not drawn) [T4C, trans-4-GG-crocin] | 3.36 ± 1 | 3.5 ± 0.57 | 370 ± 75.6 | 277 ± 67.7 | 49.3 ± 11.2 | 19,568.35 ± 4835.41 mL/h/kg | 69.250 ± 16.150 |  |  |  |  |  |  |  |  |  |
| CC1=C(C=O)C(C)(C)C[C@H](O[C@@H]2O[C@H](CO)[C@@H](O)[C@H](O)[C@H]2O)C1 [PIC, picrocrocin] | 0.793 ± 0.078 | 0.67 | 3820 ± 257 | 3690 ± 274 | 2720 ± 231 | 1935.88 ± 123.45 mL/h/kg | 2.258 ± 0.3168 | 0.792 ± 0.10 |  | stable | 30.40 ± 0.92 | 29.52 ± 1.26 | 29.98 ± 1.66 | 2406.19 ± 94.01 | 2463.69 ± 113.42 | 2498.53 ± 111.53 |
| CC1=C(C=O)C(C)(C)CC=C1 [SAF, safranal] |  |  |  |  |  |  |  |  |  | stable |  |  |  |  |  |  |
| CC(/C=C/C=C(\C)C(=O)OC1OC(CO)C(O)C(O)C1O)=C\C=C\C=C(C)\C=C\C=C(/C)C(=O)OC1OC(CO)C(O)C(O)C1O (stereo not drawn) [T2C, trans-2-gg-crocin] | 5.75 ± 0.73 | 4.34 ± 0.51 | 1680 ± 238 | 1530 ± 197 | 160 ± 15.2 | 234.77 ± 31.12 mL/h/kg | 2.006 ± 0.457 |  |  |  |  |  |  |  |  |  |
